Here are results for three molecules from publication PMC3070159 (Journal of medicinal chemistry, 2010).

The target of the experiment is T1, human sEH (Homo sapiens, UniProt P34913).
T1 sequence (P34913 1-555): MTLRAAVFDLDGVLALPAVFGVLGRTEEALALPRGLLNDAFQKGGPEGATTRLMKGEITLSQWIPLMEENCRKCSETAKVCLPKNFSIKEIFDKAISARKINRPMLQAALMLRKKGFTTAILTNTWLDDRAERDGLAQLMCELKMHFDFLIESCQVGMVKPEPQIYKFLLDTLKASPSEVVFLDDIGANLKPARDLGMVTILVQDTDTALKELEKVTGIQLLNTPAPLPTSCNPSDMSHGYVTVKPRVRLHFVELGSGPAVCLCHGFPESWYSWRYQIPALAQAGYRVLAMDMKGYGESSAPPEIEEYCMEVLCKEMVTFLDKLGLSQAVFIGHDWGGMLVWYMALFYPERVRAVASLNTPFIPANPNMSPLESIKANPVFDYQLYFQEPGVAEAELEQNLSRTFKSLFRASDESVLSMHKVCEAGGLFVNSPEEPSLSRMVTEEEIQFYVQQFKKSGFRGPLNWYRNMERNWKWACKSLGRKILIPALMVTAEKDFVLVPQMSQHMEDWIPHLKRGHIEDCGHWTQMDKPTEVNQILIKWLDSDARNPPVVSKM
Briefly: fluorescent substrate. The experiment is classed as biochemical.

As for `CC(=O)N1CCN(CCCOc2ccc(NC(=O)NC34CC5CC(CC(C5)C3)C4)cc2)CC1` [Compound 28c, 1-(4-(3-(4-acetylpiperazin-1-yl)propoxy)phenyl)-3-adamantan-1-ylurea], where the note is “human sEH IC50 ratio”, the “fold increase in potency relative to N4-methyl substituted analog 16c” value is 5.4 fold and the “fold increase in potency relative to N4-unsubstituted analog 24c” value was determined as 47.2 fold.

For the molecule `CC(C)(C)OC(=O)N1CCN(CCCCOc2ccccc2NC(=O)NC23CC4CC(CC(C4)C2)C3)CC1` [Compound 21a], the change fold stood at 191.

In the case of `CC(=O)N1CCN(CCCCOc2ccc(NC(=O)NC34CC5CC(CC(C5)C3)C4)cc2)CC1` [Compound 29c, 1-(4-(4-(4-acetylpiperazin-1-yl)butoxy)phenyl)-3-adamantan-1-yl urea], the change fold is −2.9.
